Assay results: PubChem BioAssay AID1963853 (Molecular Pharmacology Branch, DTP, NCI, 2024)

Tested on: 266295-075-R-J1-PDC spheroid viability
Assay: Anticancer human tumor 266295-075-R-J1-PDC patient-derived head and neck squamous carcinoma cell line growth inhibition [POLQ]
Settings: spheroids with HUVEC and MSC; for IC50: curve of first compound; for viability, T/C: stronger effect = lower value; active = viability on the fitted dose curve at most 10% of control; inactive = the rest
Procedure, shortened: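 Patient-derived tumour cells were co-cultured with HUVEC and mesenchymal stem cells as multicellular spheroids at 37 °C. They were treated with POLQ inhibitors (novobiocin, ART-558, RP6685) alone or combined with other agents. Top concentrations were at or near clinical Cmax (otherwise 10 microM; SN-38 at 1 microM), decreasing in half-log steps.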

[1] = second compound 0.0316 µM, first compound 0.0316 µM
[2] = second compound 0.0316 µM, first compound 0.1 µM
[3] = second compound 0.0316 µM, first compound 0.316 µM
[4] = second compound 0.0316 µM, first compound 1 µM
[5] = second compound 0.0316 µM, first compound 3.16 µM
[6] = second compound 0.0316 µM, first compound 10 µM
[7] = second compound 0.1 µM, first compound 0.0316 µM
[8] = second compound 0.1 µM, first compound 0.1 µM
[9] = second compound 0.1 µM, first compound 0.316 µM
[10] = second compound 0.1 µM, first compound 1 µM
[11] = second compound 0.1 µM, first compound 3.16 µM
[12] = second compound 0.1 µM, first compound 10 µM
[13] = second compound 0.316 µM, first compound 0.0316 µM
[14] = second compound 0.316 µM, first compound 0.1 µM
[15] = second compound 0.316 µM, first compound 0.316 µM
[16] = second compound 0.316 µM, first compound 1 µM
[17] = second compound 0.316 µM, first compound 3.16 µM
[18] = second compound 0.316 µM, first compound 10 µM
[19] = second compound 1 µM, first compound 0.0316 µM
[20] = second compound 1 µM, first compound 0.1 µM
[21] = second compound 1 µM, first compound 0.316 µM
[22] = second compound 1 µM, first compound 1 µM
[23] = second compound 1 µM, first compound 3.16 µM
[24] = second compound 1 µM, first compound 10 µM
[25] = second compound 3.16 µM, first compound 0.0316 µM
[26] = second compound 3.16 µM, first compound 0.1 µM
[27] = second compound 3.16 µM, first compound 0.316 µM
[28] = second compound 3.16 µM, first compound 1 µM
[29] = second compound 3.16 µM, first compound 3.16 µM
[30] = second compound 3.16 µM, first compound 10 µM
[31] = second compound 10 µM, first compound 0.0316 µM
[32] = second compound 10 µM, first compound 0.1 µM
[33] = second compound 10 µM, first compound 0.316 µM
[34] = second compound 10 µM, first compound 1 µM
[35] = second compound 10 µM, first compound 3.16 µM
[36] = second compound 10 µM, first compound 10 µM
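Also: spheroids exposed to compounds for seven days before readout.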

Nc1ccn(C2OC(CO)C(O)C2(F)F)c(=O)n1 (stereo unspecified) + COC1C(OC(N)=O)C(O)C(Oc2ccc3c(O)c(NC(=O)c4ccc(O)c(CC=C(C)C)c4)c(=O)oc3c2C)OC1(C)C
inactive: viability, T/C [1] 109% | viability, T/C [2] 82% | viability, T/C [3] 77.3% | viability, T/C [4] 101% | viability, T/C [5] 81.3% | viability, T/C [6] 77.9% | viability, T/C [7] 107% | viability, T/C [8] 91.9% | viability, T/C [9] 82.6% | viability, T/C [10] 84% | viability, T/C [11] 91.1% | viability, T/C [12] 75.2% | viability, T/C [13] 100% | viability, T/C [14] 85.9% | viability, T/C [15] 90.8% | viability, T/C [16] 82.4% | viability, T/C [17] 78.7% | viability, T/C [18] 77.1% | viability, T/C [19] 104% | viability, T/C [20] 78.1% | viability, T/C [21] 87% | viability, T/C [22] 84.5% | viability, T/C [23] 93.6% | viability, T/C [24] 87.4% | viability, T/C [25] 105% | viability, T/C [26] 102% | viability, T/C [27] 89.6% | viability, T/C [28] 81.8% | viability, T/C [29] 85.3% | viability, T/C [30] 83.2% | viability, T/C [31] 109% | viability, T/C [32] 87.2% | viability, T/C [33] 84.6% | viability, T/C [34] 97.6% | viability, T/C [35] 82.3% | viability, T/C [36] 84.9%
> 10 µM: IC50 (second compound 0.0316 µM) | IC50 (second compound 0.1 µM) | IC50 (second compound 0.316 µM) | IC50 (second compound 1 µM) | IC50 (second compound 3.16 µM) | IC50 (second compound 10 µM)

CC1COCCN1c1cc(C2(S(C)(=N)=O)CC2)nc(-c2ccnc3[nH]ccc23)n1 (stereo unspecified) + COC1C(OC(N)=O)C(O)C(Oc2ccc3c(O)c(NC(=O)c4ccc(O)c(CC=C(C)C)c4)c(=O)oc3c2C)OC1(C)C
inactive: viability, T/C [1] 101% | viability, T/C [2] 82.5% | viability, T/C [3] 105% | viability, T/C [4] 77.9% | viability, T/C [5] 74.9% | viability, T/C [6] 56.8% | viability, T/C [7] 82.6% | viability, T/C [8] 87.9% | viability, T/C [9] 89.6% | viability, T/C [10] 87.9% | viability, T/C [11] 82.7% | viability, T/C [12] 63.5% | viability, T/C [13] 89.2% | viability, T/C [14] 86.8% | viability, T/C [15] 101% | viability, T/C [16] 81.1% | viability, T/C [17] 94.7% | viability, T/C [18] 52.2% | viability, T/C [19] 95.4% | viability, T/C [20] 105% | viability, T/C [21] 95.2% | viability, T/C [22] 92.7% | viability, T/C [23] 78.2% | viability, T/C [24] 62.2% | viability, T/C [25] 105% | viability, T/C [26] 93.6% | viability, T/C [27] 91.9% | viability, T/C [28] 81.9% | viability, T/C [29] 79.1% | viability, T/C [30] 63.1% | viability, T/C [31] 92.4% | viability, T/C [32] 105% | viability, T/C [33] 88.9% | viability, T/C [34] 72.5% | viability, T/C [35] 68.8% | viability, T/C [36] 56.1%
> 10 µM: IC50 (second compound 0.0316 µM) | IC50 (second compound 0.1 µM) | IC50 (second compound 0.316 µM) | IC50 (second compound 1 µM) | IC50 (second compound 3.16 µM) | IC50 (second compound 10 µM)

Cn1ncnc1[C@H]1c2n[nH]c(=O)c3cc(F)cc(c23)N[C@@H]1c1ccc(F)cc1 + Nc1ccc(C#CCN(C(=O)Cc2ncc(C(F)(F)F)cc2C(F)(F)F)c2ccc(F)cc2)nn1
inactive: viability, T/C (second compound 0.0316 µM, first compound 0.000316 µM) 86.1% | viability, T/C (second compound 0.0316 µM, first compound 0.001 µM) 95.8% | viability, T/C (second compound 0.0316 µM, first compound 0.00316 µM) 89.1% | viability, T/C (second compound 0.0316 µM, first compound 0.01 µM) 92.1% | viability, T/C [1] 79.7% | viability, T/C [2] 85.3% | viability, T/C (second compound 0.1 µM, first compound 0.000316 µM) 97.9% | viability, T/C (second compound 0.1 µM, first compound 0.001 µM) 107% | viability, T/C (second compound 0.1 µM, first compound 0.00316 µM) 91.8% | viability, T/C (second compound 0.1 µM, first compound 0.01 µM) 101% | viability, T/C [7] 88.5% | viability, T/C [8] 101% | viability, T/C (second compound 0.316 µM, first compound 0.000316 µM) 110% | viability, T/C (second compound 0.316 µM, first compound 0.001 µM) 114% | viability, T/C (second compound 0.316 µM, first compound 0.00316 µM) 92.1% | viability, T/C (second compound 0.316 µM, first compound 0.01 µM) 82.7% | viability, T/C [13] 93% | viability, T/C [14] 99.4% | viability, T/C (second compound 1 µM, first compound 0.000316 µM) 105% | viability, T/C (second compound 1 µM, first compound 0.001 µM) 96.3% | viability, T/C (second compound 1 µM, first compound 0.00316 µM) 78.6% | viability, T/C (second compound 1 µM, first compound 0.01 µM) 99% | viability, T/C [19] 105% | viability, T/C [20] 69.7% | viability, T/C (second compound 3.16 µM, first compound 0.000316 µM) 103% | viability, T/C (second compound 3.16 µM, first compound 0.001 µM) 101% | viability, T/C (second compound 3.16 µM, first compound 0.00316 µM) 98.5% | viability, T/C (second compound 3.16 µM, first compound 0.01 µM) 83.8% | viability, T/C [25] 87.9% | viability, T/C [26] 87.6% | viability, T/C (second compound 10 µM, first compound 0.000316 µM) 91.6% | viability, T/C (second compound 10 µM, first compound 0.001 µM) 103% | viability, T/C (second compound 10 µM, first compound 0.00316 µM) 110% | viability, T/C (second compound 10 µM, first compound 0.01 µM) 104% | viability, T/C [31] 88.5% | viability, T/C [32] 122%
> 0.1 µM: IC50 (second compound 0.0316 µM) | IC50 (second compound 0.1 µM) | IC50 (second compound 0.316 µM) | IC50 (second compound 1 µM) | IC50 (second compound 3.16 µM) | IC50 (second compound 10 µM)
